Series [1] deals with Patient with Comorbid Generalized Anxiety Disorder, Major Depression, and ADHD. Description: Case report Patient 6: VYVANSE added to PAXIL. On the procedure:
The patient was maintained on PAXIL (paroxetine) 30 mg per day following a significant comorbid major depressive episode associated with anxiety symptoms, and a history consistent with Generalized Anxiety Disorder. […] However, after beginning a new job with more challenging responsibilities, the patient was unable to compensate for such deficits and a pattern of obsessive ruminations emerged, often involving work. In addition to perseverative and obsessive thinking, the patient experienced heightened anxiety and mild depressive symptoms, including fatigue, low mood, and amotivation, especially while at work. After discussing medication options and side effect concerns, VYVANSE was initiated to address underlying ADHD symptoms, which were felt to drive the patient's perseverative thinking, anxious ruminations, and low mood. […] PAXIL was maintained at 30 mg per day.

Series [2] has as its system patient with Binge Eating Disorder, Medication-Induced Cognitive Problems, and Fatigue. Description: Case report Example 5: VYVANSE added to existing regimen. It counts as in vivo, human. An excerpt:
The patient previously has been treated with therapy and has had multiple prior medication trials, either discontinued due to lack of efficacy or side effects, including ZOLOFT (sertraline), CELEXA (citalopram), PROZAC (fluoxetine), LEXAPRO (escitalopram), WELLBUTRIN SR (bupropion HCl), NORTRIPTYLINE, ATIVAN (lorazepam), ABILIFY (aripiprazole), RISPERDAL (risperidone), SEROQUEL (quetiapine), LYRICA (pregabalin), and RITALIN (methylphenidate). Selective serotonin reuptake inhibitors exacerbated binge eating symptoms and caused problematic weight gain. For treatment of depression with comorbid anxiety, binge-eating, and weight-gain related to binge eating symptoms, the patient was maintained on a medication regimen that included TOPAMAX (topiramate) 175 mg in the morning and 200 mg at night, LAMICTAL (lamotrigine) 200 mg in the morning, CYTOMEL (liothyronine) 25 mcg per day, KLONOPIN (clonazepam) 0.25 mg at bed time, and NEURONTIN (gabapentin) 600 mg at bedtime. […] Given prior poor response to a number of different classes of medication trials, off-label use of VYVANSE was initiated at 30 mg each morning to target a constellation of symptoms, including symptoms of major depression, binge-eating disorder, fatigue, and concentration problems. VYVANSE was maintained at 30 mg each morning for weeks before being discontinued due to adverse effects. […] However, there appeared to be no benefit on the patient's depressed mood, amotivation, and feelings of hopelessness.
This case exemplifies the clinical benefit of lisdexamfetamine dimesylate on binge-eating symptoms and potentially on weight-gain related to binging (body weight was not obtained), though longer-term treatment was cut short by adverse effects at the 30 mg dosage form. Given the number of failed prior trials, off-label use of VYVANSE was clinically indicated, especially given the severity of binge eating behavior.

In series [3] the test system is Patient with Major Depressive Disorders and Binge Eating Disorder. As to the kind of experiment: Case report Patient 1: lisdexamfetamine dimesylate added to ZOLOFT.
The test system of series [4] is Patient with ADHD, Generalized Anxiety Disorder, and Obsessive-Compulsive Behavior. As to the kind of experiment: Case report Example 3: VYVANSE. It counts as in vivo, human. An excerpt: The patient is a non-geriatric adult diagnosed with a history of ADHD, inattentive type, and comorbid Generalized Anxiety Disorder, though had no prior treatment. Presenting ADHD symptoms included difficulty sustaining attention and attending to details, difficulty organizing tasks with tendencies toward avoidance, distractibility, and problems finishing tasks that have been initiated. Symptoms of Generalized Anxiety Disorder included frequent and intense ruminative worrying, feeling overly fatigued, muscle tension and intermittent problems with sleep. […] The patient was started on VYVANSE 30 mg in the morning, along with TRAZODONE 50 mg at bedtime. VYVANSE was maintained at 30 mg once daily in the morning for one week, followed by one week at 50 mg per day, and then 70 mg per day, taken in the morning. […] The patient maintained treatment on VYVANSE at 70 mg per day for 10 weeks; TRAZODONE 50 mg at bedtime was discontinued after 4 weeks as sleep patterns had sufficiently normalized. […] The patient previously felt little or no control around such worrying, ruminative behavior and speculated that it caused significant mental and even physical fatigue.
Stimulant medications have traditionally been associated with causing or worsening anxiety symptoms (for instance, being ‘anxiogenic’).

The test system of series [5] is Patient with Binge Eating Disorder and Major Depressive Disorders. As to the kind of experiment: Case report Patient 2: lisdexamfetamine dimesylate monotherapy.
For series [6] the following is noted: once per day dosing; cited from earlier work.
Series [7] deals with Patient with Comorbid Depressive Disorders and Binge Eating Behavior. As to the kind of experiment: Case report Example 4: VYVANSE. The series is classed as in vivo, human. An excerpt: The patient also endorsed symptoms of ADHD, inattentive type, primarily around problems with organizing tasks, procrastination of work activities, and problems completing projects, though such ‘inattention’ symptoms were considered as clinically less detrimental than feeling chronically depressed, lacking motivation or interest in work or social activities, feeling fatigued and sometimes guilty, and having gained weight over several years due to ‘emotional eating’ behavior. The patient had received therapy in the past to address depressive episodes and associated life stressors, with modest benefit. The patient also described a history of ‘emotional eating’ that could occur at any time of day though more often in the late afternoons or early evenings. Such ‘emotional eating’ was often triggered by stressful situations or events, accompanied by an urge to eat, and would typically lead to excess consumption of carbohydrate-based foods. In recent years, the patient reported having gained over 10% body weight and noted a general trend toward increasing emotional eating and binging behavior. More severe binges occurred at least several times per month over a stretch of several years, though were much less common than ‘emotional eating’ that was milder in nature and occurred nearly daily. […] The patient was maintained on VYVANSE for 10 weeks at 50 mg per day. […] Symptoms of emotional eating were improved in the evenings as well, with less than one per week on average as compared to most evenings previously. […] The organization and execution of work-related tasks improved during the course of treatment as well.
The patient also began a trend of weight loss on account of decreased emotional eating and binging. The patient's ADHD was also clinically relevant, which is the primary reason VYVANSE was chosen as the initial medication treatment, though it was not the reason for which evaluation and treatment was sought and of secondary importance with regard to symptoms causing the patient difficulty and concern. […] Binge-eating behavior, largely taking the form of ‘self-soothing’ eating activity with potentially serious risks in this patient insofar as it was causing steady increased weight gain to the point of obesity), responded remarkably well to treatment with VYVANSE.

Structures are written as SMILES.

Results on three molecules are retold here after patent US8318813B2, “Method of treating binge eating disorder” (LCS Group, LLC, priority 2007, dated 2012).

With `Fc1ccc([C@@H]2CCNC[C@H]2COc2ccc3c(c2)OCO3)cc1` [PAXIL, paroxetine], in series [1] (PAXIL 30 mg per day), the “depressive and anxiety symptoms” value is given as “rapidly stabilized”.

`CS(=O)(=O)O.CS(=O)(=O)O.C[C@@H](Cc1ccccc1)NC(=O)[C@@H](N)CCCCN` [lisdexamfetamine dimesylate, (2S)-2,6-diamino-N-[(1S)-1-methyl-2-phenylethyl]hexanamide dimethanesulfonate]: in series [2] (30 mg each morning), the “absolute binges per week” value is recorded as “fewer”; the “binge-eating days per week” value is given as “fewer”; the “depressed mood, amotivation, and feelings of hopelessness” value is “no benefit”; the “fatigue and concentration throughout the day” value was “improvement”. Also, the urge to binge result in series [2] (30 mg each morning, during the time of treatment) is “notably reduced”. Further, the “adverse effects leading to discontinuation” value in series [2] (30 mg each morning, with TOPAMAX, LAMICTAL, CYTOMEL, KLONOPIN, NEURONTIN) is “excessive appetite suppression and visual blurring”. Moreover, in series [3] (8 weeks of maintenance on 70 mg in addition to 100 mg ZOLOFT (sertraline)), the depressive symptoms result is reported as “full remission”. Also, the binging days result in series [3] (for the 8 weeks at 70 mg daily along with 100 mg ZOLOFT) is on record as “no more than 3”. Further, the “reduction of binging eating days per month” value in series [3] (from approximately 12 or more to no more than 3 per month) is listed as “approximately 75%”. Further, the “binge eating days per month” value in series [3] (while taking lisdexamfetamine dimesylate, before approximately 12 or more per month) is on record as “no more than 3 per month”. The “compulsive ruminating and worrying” value in series [4] (70 mg per day) is reported as “highly significant improvement”. Further, the “ability to sustain attention and attend to details, organize and finish projects, process information” value in series [4] (70 mg per day, compared to previous baseline function) is on record as “significantly enhanced”. Further, the inattention symptoms entry in series [4] (after 10 weeks at 70 mg per day) is recorded as “only mildly affected”. Also, in series [4] (for the duration of the day), the “'wear off' during treatment of Generalized Anxiety Disorder symptoms” value is recorded as “no problematic ‘wear off’”. The “ADHD and Generalized Anxiety Disorder symptoms” value in series [4] (within the first week, 30 mg in the morning with TRAZODONE 50 mg at bedtime) is “positive effect”. Further, the ADHD symptoms entry in series [5] (Patient 2) is “as effective as […] XR”. For the same molecule, in series [5] (end of 5 weeks of treatment, 271 mg/dL prior to treatment), the triglyceride levels is listed as 160 mg/dL. For the same molecule, the binging episodes entry in series [5] (first 2 weeks of treatment, before at least two days per week) is recorded as “only once”. The “depressive symptoms (depressed mood, interest level, sleep quality, physical fatigue)” value in series [5] (monotherapy, about 10 weeks) was “overall improvement”. In series [5] (obese patient, about 10 weeks on lisdexamfetamine dimesylate (70 mg from day 3)), the “total body weight lost” value is reported as “approximately 7%”. For the same molecule, the binging episodes entry in series [5] (subsequent 8 weeks of treatment) is given as “stopped entirely”. The “time after administration for which significant effects have been demonstrated” value in series [6] was “up to 12 hours”. Further, in series [1] (30 mg per day for one week, titrated to 50 mg per day), the adverse effect result is on record as “without adverse effect”. Besides, the “ADHD, Generalized Anxiety Disorder, and Major Depressive Disorder symptoms” value in series [1] (ensuing 9 weeks, with PAXIL 30 mg per day) is “improvement”. Further, the weight loss in series [1] (over 2 months of treatment, VYVANSE 50 mg per day with PAXIL 30 mg per day) is listed as 4-5%. In series [1] (with PAXIL 30 mg per day), the “mood, motivation and energy” value was “improved”; the worrying entry is given as “substantial reduction”. Moreover, the adverse effects entry in series [7] (30 mg per day for two weeks, increased to 50 mg per day) is “without any adverse effects”. Moreover, in series [7] (50 mg daily), the “emotional eating behavior in the afternoon” value is “abrupt and sustained cessation”. In addition, the depressive symptoms entry in series [7] (10 weeks at 50 mg per day) was “significant amelioration”. Besides, the major binges entry in series [7] (at any point while taking VYVANSE, before at least several times per month) is “no reported major binges”. Further, the “organization and execution of work-related tasks” value in series [7] (during the course of treatment) was “improved”. In series [7] (on average, compared to most evenings previously), the “emotional eating in the evenings” value was “less than one”. Also, the weight lost in series [7] (over 2½ months of treatment) is listed as 6-7 pounds.

Regarding `CC1(C)O[C@@H]2[C@@H](CO[C@@]3(COS(N)(=O)=O)OC(C)(C)O[C@@H]23)O1` [TOPAMAX, topiramate], the binge eating behavior entry in series [2] (TOPAMAX 175 mg in the morning and 200 mg at night, clinically insufficient) is recorded as “helped reduce”. The tolerability entry in series [2] (in vivo) is on record as “poorly tolerated at higher doses due to cognitive side effects”.
